This note sets out measurements from patent US10947243B2, “Heteroaryl SYK inhibitors” (Boehringer Ingelheim International GmbH, priority 2014, dated 2021).

Data set [1] concerns the target Recombinant human Syk (amino acids 342-635) (Homo sapiens (Human), UniProt P43405). Kind of data set: Syk Kinase Test (Kinase Glo luminescence). The data set is classed as biochemical. How it is done:
(§1) The output file of the reader is a csv file that contains the well number and measured relative light units (RLU). For data evaluation and calculation, the measurement of the negative control was set as 100% ctrl and the measurement of the positive control was set as 0% ctrl. Based on this values the % value for the measurement of each substance concentration was calculated using an Assay Explorer software (Accelrys). Normally, the % ctrl values calculated are between 0% and 100% values but may also occur outside these limits in individual cases based on variability or compound characteristics. The IC50 values were calculated from the % ctrl values using Assay Explorer software. Calculation: [y=(a−d)/(1+(x/c)^b)+d] a=low value, d=high value; x=conc M; c=IC50 M; b=hill; y=% ctrl.

The target of data set [2] is Recombinant human Aurora B (amino acids 1-344) (Homo sapiens (Human), UniProt Q96GD4). Description: Aurora B Kinase Test (ADP Glo luminescence). The data set is classed as biochemical. How it is done:
The activity of the Aurora B kinase protein was determined using the ADP Glo® Luminescence Kinase test (Promega; V9103X).
Serial Dilution is done in 1:10 steps in 100% DMSO.
Then 20 μl Kinase detection mix (Detection Buffer #V913B Promega; Kinase Detection Substrate #V914B Promega) were added and incubated for 40 minutes at room temperature.
as §1, with “measured RLU.” for “measured relative light units (RLU).”, “as 0%” for “as 100%”, “as 100%” for “as 0%”, “Calculation: [y=(a−d)/(1+(x/c)^b)+d],” for “Calculation: [y=(a−d)/(1+(x/c)^b)+d]”

In data set [3] the target is FLT3 (Homo sapiens (Human), UniProt P36888). Description: FLT3 Kinase Test (Z'-LYTE). Type of data set: biochemical. As for the experimental part:
The activity of FLT3 is measured using the Z′-LYTE™ assay technology from Invitrogen (#PV3191)
The reaction is started by addition of 2.5 μl of the 4×ATP solution.
Positive controls are reaction mixtures containing no test compound; negative controls (blanks) are reaction mixtures containing no kinase. As a further control, the phosphopeptide solution is added to wells without kinase (=100% phosphorylation control).
The reaction is performed for 1 h at room temperature before 5 μl of the development solution is added. After a further incubation for 1 h at room temperature 5 μl of the stop reagent is added.
The output text file is evaluated in an “MS-Excel-VB-Makro” and “GraphPadPrism” (Version 5) (GraphPad Software Inc.) is used to calculate the results. Data for the inhibition of FLT3 are reported in M. data for the inhibition of the protease are reported in % CTL.

Data set [4] in a line: Human Liver Microsomal Stability Test. The data set is classed as in vitro ADME. To be noted: human liver microsomes. As for the experimental part:
The metabolic degradation for a specific SYK-inhibitor is performed at 37° C. with pooled human liver microsomes (human liver microsomes are commercially available as “BD UltraPool™” by Corning Life Sciences, Fogostraat 12, 1060 LJ Amsterdam, The Netherlands). The final incubation volume of 100 μl per time point contains TRIS buffer pH 7.6 at RT (0.1 M), magnesium chloride (5 mM), microsomal protein (1 mg/ml) and the test compound at a final concentration of 1 μM.
Following a short preincubation period at 37° C., the reaction is initiated by addition of beta-nicotinamide adenine dinucleotide phosphate in its reduced form (NADPH, 1 mM) and terminated by transfering an aliquot into solvent after different time points. Additionally, the NADPH-independent degradation is monitored in incubations without NADPH, terminated at the last time point.
The quenched (terminated) incubations are then pelleted by centrifugation (10000 g, 5 min).
An aliquot of the supernatant is assayed by LC-MS/MS for the remaining amount of parent compound. The half-life (t½ INVITRO) is determined by the slope of the semilogarithmic plot of the concentration-time profile.
The intrinsic clearance (CL_[…]) is calculated by considering the amount of protein in the incubation: CL_[…] [μl/min/mg protein]=(Ln 2/(t½INVITRO [min]*protein content [mg/ml]))*1000
The protein content [mg/ml] was determined with the “Bicinchoninic Acid Kit” of Sigma Aldrich (commercially available).
The upscaled intrinsic Clearance (CL_UP_INT) is calcuated by considering the liver weight [g liver/kg body weight] and the microsomal recovery [mg protein/g liver]: CL_UP_INT [ml/min/kg]=0.001*CL_[…]*liver weight*microsomal recovery • with microsomal recovery=45 mg protein/g liver • with liver weight=25.7 g liver/kg body weight
The percent hepatic blood flow (% Qh) is finally calculated by considering the human liver blood flow Q [ml/min/kg]: % Qh [%]=((Q*CL_UP_INT)/(Q+CL_UP_INT)/Q)*100 • with liver blood flow (Q)=20.7 ml/min/kg.

Data set [5] has as its target Human GSK3beta (Homo sapiens (Human), UniProt P49841). Description: GSK 3β Kinase-Test (Z'-LYTE). Type of data set: biochemical. The settings on record: comparison compounds, Example numbers of WO 2013/014060; read-out: IC50 in μM (GSK3beta-Inhibition). As for the experimental part:
Human GSK3beta (expressed and prified from SF21 cells) is obtained from the University Dundee/Scotland (Dr. James Hastie—Dept. of Biochemistry) in 50 mM Tris (pH7.5); 150 mM NaCl; 0.1 mM EGTA, 270 mM Succrose, 0.1% B-mercaptoethanol, 1 mM benzamidine, 0.2 mM PMSF; sequence see below). The enzyme is diluted to 3.56 μM (168 μg/ml) in enzyme dilution buffer and 6 μl aliquots are stored at −80° C.
The activity of GSK3 kinase protein is measured using the Z′-LYTE™ assay technology from Invitrogen (# PV3324).
The assay is performed in 384 black plates from Corning (#3676) in a final volume of 10 μl by adding 5 μl of kinase peptide mix and 2.5 μl of compound dilution. The reaction is started by addition of 2.5 μl of the 4×ATP solution.
Positive controls are reaction mixtures containing no test compound; negative controls (blanks) are reaction mixtures containing no ATP. As a further control, the phosphopeptide solution is added to wells without kinase and without ATP (=100% phosphorylation control). The non inhibited kinase reaction will result in a phosphorylation corresponding to 20%-30% of the phosphorylation control.
The reaction is performed 1 h at room temperature. After 1 h 5 μl of the development solution is added. After a further incubation for 1 h at room temperature 5 μl of the stop reagent is added. Finally the plates are read on a Flex Station II 384 (Molecular Devices).
The output text file is evaluated in an “MS-Excel-VB-Makro” and “GraphPadPrism” (Version 5) (GraphPad Software Inc.) is used to calculate the results. Data for the inhibition of GSK3beta are reported in M. data for the inhibition of the protease are reported in % CTL.

[6] abbreviates: comparison compounds, Example numbers of WO 2013/014060, read-out: IC50 in μM (SYK-Inhibition).
Where [7] appears, read: comparison compounds, Example numbers of WO 2013/014060, read-out: IC50 in μM (AURB-Inhibition).
Where [8] appears, read: comparison compounds, Example numbers of WO 2013/014060, read-out: IC50 in μM (FLT3-Inhibition).
[9] abbreviates: comparison compounds, Example numbers of WO 2013/014060.
Setting [10] is: compounds of the invention (own Example numbers).

Where two headings read alike, the source gives them in different places. Bounds are passed on as bounds.

Sequence of Recombinant human Aurora B (amino acids 1-344) (Q96GD4 whole entry, the tested form may be a part): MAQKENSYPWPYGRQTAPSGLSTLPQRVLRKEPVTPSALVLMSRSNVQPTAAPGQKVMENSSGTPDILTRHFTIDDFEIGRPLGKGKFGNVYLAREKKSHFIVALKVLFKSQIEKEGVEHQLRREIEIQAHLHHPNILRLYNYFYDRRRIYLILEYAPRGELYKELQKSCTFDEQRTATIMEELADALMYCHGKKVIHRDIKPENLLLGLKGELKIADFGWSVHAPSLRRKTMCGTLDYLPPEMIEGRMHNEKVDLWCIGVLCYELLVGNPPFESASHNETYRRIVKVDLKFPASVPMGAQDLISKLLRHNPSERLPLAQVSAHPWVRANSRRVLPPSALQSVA
Sequence of Human GSK3beta (P49841 whole entry): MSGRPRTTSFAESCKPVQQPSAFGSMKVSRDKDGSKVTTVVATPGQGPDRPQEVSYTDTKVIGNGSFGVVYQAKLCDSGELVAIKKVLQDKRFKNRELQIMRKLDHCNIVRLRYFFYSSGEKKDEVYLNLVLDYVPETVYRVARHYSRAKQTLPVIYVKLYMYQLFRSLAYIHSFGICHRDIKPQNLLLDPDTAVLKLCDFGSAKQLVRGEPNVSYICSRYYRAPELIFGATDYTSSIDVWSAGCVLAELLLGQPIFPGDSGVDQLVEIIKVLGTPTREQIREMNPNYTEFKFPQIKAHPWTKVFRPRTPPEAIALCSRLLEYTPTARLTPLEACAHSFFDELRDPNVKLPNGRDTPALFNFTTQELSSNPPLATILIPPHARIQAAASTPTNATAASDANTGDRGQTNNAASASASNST
Sequence of FLT3 (P36888 564-958): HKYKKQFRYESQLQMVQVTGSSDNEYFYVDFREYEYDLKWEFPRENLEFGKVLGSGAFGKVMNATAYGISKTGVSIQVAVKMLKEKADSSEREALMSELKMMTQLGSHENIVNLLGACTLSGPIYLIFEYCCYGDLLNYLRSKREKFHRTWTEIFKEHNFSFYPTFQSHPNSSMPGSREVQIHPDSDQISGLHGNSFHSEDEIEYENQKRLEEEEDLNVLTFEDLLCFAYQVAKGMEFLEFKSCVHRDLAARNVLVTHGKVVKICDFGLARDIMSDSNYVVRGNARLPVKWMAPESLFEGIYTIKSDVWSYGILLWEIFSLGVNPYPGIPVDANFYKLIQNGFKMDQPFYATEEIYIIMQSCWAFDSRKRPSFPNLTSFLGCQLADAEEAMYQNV

On to `C[C@@H](Oc1cc(-c2ccc(F)cn2)cc2nn(C)cc12)[C@H]1CNC(=O)C1` [Example 41, (4R)-4-[(1R)-1-[6-(5-fluoro-2-pyridyl)-2-methyl-indazol-4-yl]oxyethyl]pyrrolidin-2-one], for which the IC50 was 0.001 µM in data set [1] (setting [6]), 0.308 µM in data set [2] (setting [7]) and 0.505 µM in data set [3] (setting [8]). The “microsomal stability Cl [% Qh]” value in data set [4] (setting [9]) is 37 % Qh; in data set [4] (percent hepatic blood flow) it was <23 % Qh.
For the compound `Cc1c(-c2cc(O[C@H](C)[C@H]3CNC(=O)C3)c3cccnc3c2)cnn1C` [compound 112], the IC50 was 0.006 µM in data set [1] (setting [6]), 2.96 µM in data set [2] (setting [7]), 1.25 µM in data set [3] (setting [8]) and > 10 µM in data set [5]. In addition, the “microsomal stability Cl [% Qh]” value in data set [4] (setting [9]) was <23 % Qh.
Consider `COc1cc(-c2cc3nn(C)cc3c(O[C@H](C)[C@H]3CNC(=O)C3)n2)ccc1OC(C)C` [Example 81, (4R)-4-[(1R)-1-[6-(4-isopropoxy-3-methoxy-phenyl)-2-methyl-pyrazolo-[4,3-c]pyridin-4-yl]oxyethyl]-pyrrolidin-2-one], for which the IC50 worked out at 0.003 µM in data set [1] (setting [6]), 0.949 µM in data set [2] (setting [7]) and 0.514 µM in data set [3] (setting [8]). Moreover, the “microsomal stability Cl [% Qh]” value in data set [4] (setting [9]) and in data set [4] (setting [10]) was <23 % Qh each time.
As to “(4R)-4-[(1R)-1-[2-methyl-6-(3-methyl-1-tetrahydropyran-4-yl-pyrazol-4-yl)pyrazolo-[4,3-c]pyridin-4-yl]oxyethyl]-pyrrolidin-2-one [Example 79]”, the IC50 was found to be 0.0364 µM in data set [1] (read-out: SYK-inhibiton IC50-value) and 26.7 µM in data set [3] (read-out: FLT3-inhibition IC50-value).
Regarding `C[C@@H](Oc1cc(-c2ccc(C3CCN(C)CC3)cc2)cc2nn(C)cc12)[C@H]1CNC(=O)C1` [Example 42, (4R)-4-[(1R)-1-[2-methyl-6-[4-(1-methyl-4-piperidyl)-phenyl]indazol-4-yl]oxyethyl]-pyrrolidin-2-one], the IC50 in data set [1] (setting [6]) was 0.002 µM; in data set [2] (setting [7]) it was 0.63 µM; in data set [3] (setting [8]), 0.618 µM. The “microsomal stability Cl [% Qh]” value in data set [4] (setting [9]) and in data set [4] (percent hepatic blood flow) was <23 % Qh each time.
On to `C[C@@H](Oc1nc(-c2cnn(C(C)(C)C)c2)cc2nn(C)cc12)[C@H]1CNC(=O)C1` [Example 2, (4R)-4-[(1R)-1-[6-(1-tert-Butylpyrazol-4-yl)-2-methyl-pyrazolo[4,3-c]pyridin-4-yl]oxyethyl]pyrrolidin-2-one], for which the values for the IC50 in data set [1] (setting [6]), in data set [2] (setting [7]) and in data set [3] (setting [8]) were 0.007 µM, 16.9 µM and 7.39 µM, respectively. In addition, the “microsomal stability Cl [% Qh]” value in data set [4] (setting [9]) is listed as 81 % Qh; in data set [4] (setting [10]) it was <23 % Qh.
On to `CCCn1cc(-c2cc(O[C@H](C)[C@H]3CNC(=O)C3)c3cccnc3c2)cn1` [compound 114], for which the IC50 in data set [2] (setting [7]) was 2.54 µM; in data set [3] (setting [8]), 0.049 µM; in data set [5], > 10 µM. Besides, in data set [4] (setting [9]), the “microsomal stability Cl [% Qh]” value was 26 % Qh.
Take `COc1cc(-c2cc3nn(C)cc3c(O[C@H](C)[C@H]3CNC(=O)C3)n2)ccc1O` [Example 8, (4R)-4-[(1R)-1-[6-(4-Hydroxy-3-methoxy-phenyl)-2-methyl-pyrazolo[4,3-c]pyridin-4-yl]oxyethyl]pyrrolidin-2-one]: the half-maximal inhibitory concentration (IC50) was 0.643 µM in data set [2] (setting [7]) and 0.369 µM in data set [3] (setting [8]). Also, the “microsomal stability Cl [% Qh]” value in data set [4] (comparison compounds, Example numbers of WO 2011/092128) is listed as 77 % Qh; in data set [4] (setting [9]), 58 % Qh; in data set [4] (setting [10]) it was <23 % Qh.
For the compound `C[C@@H](Oc1cc(-c2cscn2)cc2nn(C)cc12)[C@H]1CNC(=O)C1` [Example 29, (4R)-4-[(1R)-1-(2-methyl-6-thiazol-4-yl-indazol-4-yl)oxyethyl]pyrrolidin-2-one], the IC50 in data set [2] (read-out: AURB-inhibition IC50-value) was > 50 µM; in data set [2] (read-out: IC50 in μM (AURB-Inhibition)), 0.293 µM; in data set [5], > 10 µM. Besides, the “microsomal stability Cl [% Qh]” value in data set [4] (setting [9]) is listed as 44 % Qh.
For the compound `C[C@@H](Oc1nc(-c2ccc(C(F)(F)F)nc2)cc2nn(C)cc12)[C@H]1CNC(=O)C1` [Example 61, (4R)-4-[(1R)-1-[2-methyl-6-[6-(trifluoromethyl)-3-pyridyl]pyrazolo[4,3-c]pyridin-4-yl]oxyethyl]pyrrolidin-2-one], the IC50 in data set [1] (setting [6]) came to 0.002 µM; in data set [2] (setting [7]), 0.25 µM; in data set [3] (setting [8]), 0.411 µM. For the same compound, the “microsomal stability Cl [% Qh]” value in data set [4] (setting [9]) and in data set [4] (percent hepatic blood flow) was <23 % Qh throughout.
For `COc1ccc(-c2cc3nn(C)cc3c(O[C@H](C)[C@H]3CNC(=O)C3)n2)cc1OC` [Example 1, (4R)-4-[(1R)-1-[6-(3,4-Dimethoxyphenyl)-2-methyl-pyrazolo[4,3-c]pyridin-4-yl]oxyethyl]pyrrolidin-2-one], the IC50 in data set [1] (comparison compounds, Example numbers of WO 2011/092128, read-out: IC50 in μM (SYK-Inhibition)) came out at 0.009 µM; in data set [2] (comparison compounds, Example numbers of WO 2011/092128, read-out: IC50 in μM (AURB-Inhibition)) it was 5.09 µM; in data set [3] (comparison compounds, Example numbers of WO 2011/092128, read-out: IC50 in μM (FLT3-Inhibition)), 1.53 µM. The “microsomal stability Cl [% Qh]” value in data set [4] (setting [10]) was <23 % Qh.
